Source: patent publication US20140135293A1, “ALLENE DERIVATIVES AS SPHINGOSINE 1-PHOSPHATE (S1P) RECEPTOR MODULATORS” (ALLERGAN, INC., priority 2012, published 2014)

target: T1, human S1P1 receptor (Homo sapiens, UniProt P21453); experiment: GTP y35S binding assay for S1P1 activity; assay type: biochemical; conditions: membranes of cells stably expressing the S1P1 receptor, agonist potency
T1 construct: expressed in transfected cells; membranes used
Protocol: Compounds were synthesized and tested for S1P1 activity using the GTP y^35S binding assay. These compounds may be assessed for their ability to activate or block activation of the human S1P1 receptor in cells stably expressing the S1P1 receptor.
GTP y^35S binding was measured in the medium containing (mM) HEPES 25, pH 7.4, MgCl2 10, NaCl 100, dithitothreitol 0.5, digitonin 0.003%, 0.2 nM GTP y^35S, and 5 μg membrane protein in a volume of 150 μl. Test compounds were included in the concentration range from 0.08 to 5,000 nM unless indicated otherwise. Membranes were incubated with 100 μM […] for 30 min, and subsequently with 10 μM GDP for 10 min on ice. Drug solutions and membrane were mixed, and then reactions were initiated by adding GTP y^35S and continued for 30 min at 25° C. Reaction mixtures were filtered over Whatman GF/B filters under vacuum, and washed three times with 3 mL of ice-cold buffer (HEPES 25, pH7.4, MgCl2 10 and NaCl 100). Filters were dried and mixed with scintillant, and counted for ^35S activity using a ([…]. Agonist-induced GTP y^35S binding was obtained by subtracting that in the absence of agonist. Binding data were analyzed using a non-linear regression method. In case of antagonist assay, the reaction mixture contained 10 nM […] in the presence of test antagonist at concentrations ranging from 0.08 to 5000 nM.

T1 sequence (P21453 whole entry): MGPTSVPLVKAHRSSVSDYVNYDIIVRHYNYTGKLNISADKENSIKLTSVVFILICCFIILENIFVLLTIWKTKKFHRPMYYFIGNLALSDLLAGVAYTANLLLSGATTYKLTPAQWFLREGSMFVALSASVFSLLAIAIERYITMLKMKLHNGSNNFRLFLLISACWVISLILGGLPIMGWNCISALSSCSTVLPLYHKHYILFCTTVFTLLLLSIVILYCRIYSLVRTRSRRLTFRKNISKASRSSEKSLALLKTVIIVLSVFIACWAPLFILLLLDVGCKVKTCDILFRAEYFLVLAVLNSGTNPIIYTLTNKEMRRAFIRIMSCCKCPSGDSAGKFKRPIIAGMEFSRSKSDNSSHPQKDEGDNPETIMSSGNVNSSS

Q: How did the EC50 turn out when `Cc1ccc(CC(=C=Cc2ccc(CNCCCP(=O)(O)O)cc2-c2cccs2)c2cc(F)cc(F)c2)cc1C` [Compound 1, [3-({4-[3-(3,5-difluorophenyl)-4-(3,4-dimethylphenyl)buta-1,2-dien-1-yl]-3-(2-thienyl)benzyl}amino)propyl]phosphonic acid] was run?
A: The EC50 was 58.4 nM.

Q: For `Cc1ccc(CC(=C=Cc2ccc(CNCCCP(=O)(O)O)cc2-c2ccco2)c2cc(F)cc(F)c2)cc1C` [Compound 2, [3-({4-[3-(3,5-Difluorophenyl)-4-(3,4-dimethylphenyl)buta-1,2-dien-1-yl]-3-(2-furyl)benzyl}amino)propyl]phosphonic acid], which EC50 is on record?
A: The EC50 was 58.5 nM.

Q: `CCc1cc(C=C=C(Cc2ccc(C)c(C)c2)c2cc(F)cc(F)c2)ccc1CNCCCP(=O)(O)O` [Compound 3, [3-({4-[3-(3,5-Difluorophenyl)-4-(3,4-dimethylphenyl)buta-1,2-dien-1-yl]-2-ethylbenzyl}amino)propyl]phosphonic acid] was tested. Which EC50 did it give?
A: The EC50 was 1640 nM.
